Among the data in PMC4188250 (Biochemistry, 2014) are Kd values, retold here.

The target of test [1] is T1, Cytochrome P450 4A11 (Homo sapiens, UniProt Q02928).
T1 sequence (Q02928 5-519): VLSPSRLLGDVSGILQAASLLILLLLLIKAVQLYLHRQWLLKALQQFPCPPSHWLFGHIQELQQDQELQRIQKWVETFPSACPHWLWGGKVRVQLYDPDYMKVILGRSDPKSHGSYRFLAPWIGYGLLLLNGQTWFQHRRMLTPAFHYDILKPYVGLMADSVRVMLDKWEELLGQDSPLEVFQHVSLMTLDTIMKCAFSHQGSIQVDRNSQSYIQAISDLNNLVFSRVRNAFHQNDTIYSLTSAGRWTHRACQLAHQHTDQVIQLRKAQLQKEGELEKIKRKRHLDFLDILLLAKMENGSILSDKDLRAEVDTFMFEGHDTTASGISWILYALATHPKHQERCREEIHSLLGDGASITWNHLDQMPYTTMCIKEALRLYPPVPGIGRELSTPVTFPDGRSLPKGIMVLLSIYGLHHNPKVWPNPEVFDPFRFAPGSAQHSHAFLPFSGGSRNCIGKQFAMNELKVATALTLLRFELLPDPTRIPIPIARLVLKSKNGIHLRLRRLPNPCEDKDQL
The experiment in a line: UV-visible spectral binding titration.

Test [2] deals with T1, Cytochrome P450 4A11. The experiment in a line: UV-visible spectral binding titration. This is another data set of the same source.

The structures appear in SMILES notation. Where two headings read alike, the source gives them in different places.

For the compound `O=C(O)CCCCCCCCCCCO` [12-OH lauric acid], on Cytochrome P450 4A11 [1], the Kd came to 5.1 ± 2.1 µM.

On Cytochrome P450 4A11 [2], `CCCCCCCCCCCC(=O)O` [lauric acid, dodecanoic acid] had a Kd of 6.7 ± 0.3 µM.
